Measured values reported in EP0606463B1, “NEUROMEDIN B RECEPTOR ANTAGONISTS” (The Administrators of The Tulane Educational Fund, priority 1992, dated 1994).
Where a SMILES comes first, the peptide text is derived from it. Bridges are numbered along the chain shown (N, C = ends). [ ]: non-standard residue; d: D form. 2Nal = N[C@@H](Cc1ccc2ccccc2c1)C(=O)O; d2Nal = N[C@H](Cc1ccc2ccccc2c1)C(=O)O

What was measured:
[1] = biological target: T1, rat NMB receptor (Rattus norvegicus, UniProt P24053); test: Binding of 125I-[D-Tyr0]NMB to NMB-R transfected BALB 3T3 cells; settings: for fold by which cyclo SS-octa was more potent than the analog: inhibition of ^125I-[Tyr^0]NMB binding to NMB-R transfected cells
T1 construct: a full length NMB-preferring bombesin receptor clone generated from rat esophagus; expressed in transfected cells; host or cells: BALB 3T3 cells
T1 sequence (P24053 1-390): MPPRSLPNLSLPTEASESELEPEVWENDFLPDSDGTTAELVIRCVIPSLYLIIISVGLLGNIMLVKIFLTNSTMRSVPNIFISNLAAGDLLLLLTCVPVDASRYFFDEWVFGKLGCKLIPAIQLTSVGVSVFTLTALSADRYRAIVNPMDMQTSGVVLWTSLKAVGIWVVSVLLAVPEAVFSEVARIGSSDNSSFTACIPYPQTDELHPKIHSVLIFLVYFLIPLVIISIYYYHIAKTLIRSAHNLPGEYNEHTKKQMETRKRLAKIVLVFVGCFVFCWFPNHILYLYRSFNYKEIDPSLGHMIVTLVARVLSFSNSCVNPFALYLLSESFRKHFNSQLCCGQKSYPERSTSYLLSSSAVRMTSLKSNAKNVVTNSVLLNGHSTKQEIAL
Procedure: (§1) Cells were passaged every 3-4 days at confluence, using 0.1% trypsin in 1 mM EDTA. Rat glioblastoma C-6 tumor cells were maintained similarly and were passaged weekly at confluence. Both cell lines were cultured at 37°C in a 5% CO2 atmosphere. Rat AR 42J pancreatic acinar cells were cultured in Dulbecco's modified Eagle's medium (DMEM) without antibiotics and supplemented with 10% (vol/vol) fetal calf serum. The incubation atmosphere consisted of 10% CO2-90% humidified air at 37°C.

[2] = biological target: T2, NMB Receptor (Rattus norvegicus, UniProt P24053); test: [3H]inositol phosphates (IP) in NMB-R transfected cells; type: cell-based; settings: for NMB-R Transfected Cells [^3H]IP Alone (10 µ M): analog 10 µM alone, no-additive control 13 ± 3; for NMB-R Transfected Cells [^3H]IP Plus NMB (3 nM): analog 10 µM plus NMB 3 nM, NMB without analog 186 ± 58; for effect on NMB-stimulated increase in [^3H]IP: NMB-R transfected cells, 3 nM NMB, peptide 10 µM
T2 construct: a full length NMB-preferring bombesin receptor clone generated from rat esophagus; expressed in transfected cells; host or cells: BALB 3T3 cells
T2 sequence (P24053 1-390): T1 sequence (P24053 1-390)
Procedure: as §1, with “As described previously [Wada, E., et al. Neuron 6:421 (1991)], BALB 3T3 cells expressing a stably transfected rat NMB receptor (NMB-R transfected cells) were obtained using calcium phosphate precipitation of a full length NMB-preferring bombesin receptor clone generated from rat esophagus and subcloned into a modified version of the pCD2 plasmid. Cells” for “Cells”
Total phosphoinositides in C-6 cells and in NMB-R transfected cells were determined as described previously, with minor modifications [Benya, R. V. et al. Mol. Pharmacol. 42:1058 (1992); and Wang, L-H. et al. Biochem. J. 286:641 (1992)]. Cells were grown to confluence in 24-well plates and then loaded with 100 µCi/ml myo-[2-^3H]inositol in Dulbecco's modified essential medium with 2% fetal bovine serum at 37°C for 48 hrs. Cells were washed and incubated in phosphoinositide buffer (standard buffer additionally containing 10 mM LiCl, 20 mM HEPES, 2 mM CaCl2, 2% BSA, and 1.2 mM MgSO4) for 15 min and then for 60 min at 37°C with agonists at various concentrations or with 3 nM NMB (a half-maximal effective concentration) and possible antagonists at different concentrations. Reactions were halted using ice-cold 1% HCl in methanol, and the inositol phosphates (IP) were isolated as described previously [Bologna, M. et al. Cancer 63:1714 (1989); and Endo, T. et al. J. Endocrinol. 131:313 (1991)]. Briefly, after loading of the anion exchange column, free [^3H]glycerophosphorylinositol was removed by washing with 5 mM disodium tetraborate in 60 mM sodium formate. Total [^3H]inositol phosphates were then eluted using 100 mM formic acid in 1.0 M ammonium formate as described previously [Benya, R. V. et al. Mol. Pharmacol. 42:1058 (1992); and Wang, L-H. et al. Biochem. J. 286:641 (1992)].

[3] = biological target: T3, GRP Receptor (Rattus norvegicus, UniProt P52500); test: Amylase release from rat pancreatic acini; type: cell-based; settings: for Rat Pancreatic Acini Amylase Release Alone (10µM): analog 10 µM alone, no-additive control 4 ± 1; for Rat Pancreatic Acini Amylase Release Plus Bn(0.3 nM): analog 10 µM plus Bn 0.3 nM, Bn without analog 15 ± 1
T3 construct: from tissue; host or cells: dispersed pancreatic acini
T3 sequence (P52500 whole entry): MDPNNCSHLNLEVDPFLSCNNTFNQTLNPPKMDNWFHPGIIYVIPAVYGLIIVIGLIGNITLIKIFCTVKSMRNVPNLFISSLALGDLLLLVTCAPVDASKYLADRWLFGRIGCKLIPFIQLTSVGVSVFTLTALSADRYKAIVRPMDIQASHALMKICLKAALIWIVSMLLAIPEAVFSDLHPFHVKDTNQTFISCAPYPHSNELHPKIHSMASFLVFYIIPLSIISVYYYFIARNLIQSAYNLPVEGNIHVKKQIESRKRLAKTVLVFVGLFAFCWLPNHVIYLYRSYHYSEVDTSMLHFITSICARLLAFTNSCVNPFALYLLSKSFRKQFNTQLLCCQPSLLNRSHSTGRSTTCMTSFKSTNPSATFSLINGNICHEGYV

SMILES | fold by which cyclo SS-octa was more potent than the analog [1] [fold] | NMB-R Transfected Cells [^3H]IP Alone (10 µ M) [2] [dpm x 10^3] | NMB-R Transfected Cells [^3H]IP Plus NMB (3 nM) [2] [dpm x 10^3] | Rat Pancreatic Acini Amylase Release Alone (10µM) [3] [% total] | Rat Pancreatic Acini Amylase Release Plus Bn(0.3 nM) [3] [% total] | effect on NMB-stimulated increase in [^3H]IP [2] | decrease in NMB receptor affinity compared with #1 ([1]; structure-function comparison of Table 1 values) [fold]
CC(C)[C@@H]1NC(=O)[C@H](CCCCN)NC(=O)[C@@H](Cc2c[nH]c3ccccc23)NC(=O)[C@H](Cc2ccc(O)cc2)NC(=O)[C@@H](NC(=O)[C@H](N)Cc2ccccc2)CSSC[C@@H](C(=O)N[C@@H](Cc2ccc3ccccc3c2)C(N)=O)NC1=O [Analog #4, [D-Phe^1]-cyclo SS-octa] (H-[dF]CY[dW]KVC[2Nal]-NH2; disulfide 2-7; N-terminus assumed) | 4 | 13 ± 1 | 33 ± 4 | 4 ± 2 | 14 ± 1 | – | –
C[C@@H](O)[C@H](NC(=O)[C@@H]1CSSC[C@H](NC(=O)[C@H](N)Cc2ccc3ccccc3c2)C(=O)N[C@@H](Cc2ccc(O)cc2)C(=O)N[C@H](Cc2c[nH]c3ccccc23)C(=O)N[C@@H](CCCCN)C(=O)N[C@@H]([C@@H](C)O)C(=O)N1)C(N)=O [Analog #6, [Thr^6,8]-cyclo-SS-octa] | 69 | 11 ± 2 | 188 ± 30 | 3 ± 1 | 14 ± 2 | had no effect | –
C[C@@H](O)[C@@H]1NC(=O)[C@H](CCCCN)NC(=O)[C@@H](Cc2c[nH]c3ccccc23)NC(=O)[C@H](Cc2ccc(O)cc2)NC(=O)[C@@H](NC(=O)[C@H](N)Cc2ccccc2)CSSC[C@@H](C(=O)N[C@@H](Cc2ccc3ccccc3c2)C(N)=O)NC1=O [Analog #7, [D-Phe^1, Thr^6]-cyclo-SS-octa] (H-[dF]CY[dW]KTC[2Nal]-NH2; disulfide 2-7; N-terminus assumed) | 18 | 15 ± 1 | 99 ± 24 | 3 ± 1 | 16 ± 1 | – | –
CC(C)[C@@H]1NC(=O)[C@H](CCCCN)NC(=O)[C@@H](Cc2c[nH]c3ccccc23)NC(=O)[C@H](Cc2ccc(O)cc2)NC(=O)[C@@H](NC(=O)[C@H](N)Cc2ccc3ccccc3c2)CSSC[C@@H](C(=O)N[C@H](Cc2ccc3ccccc3c2)C(N)=O)NC1=O [Analog #8, [D-Nal^8]-cyclo SS-octa] (H-[d2Nal]CY[dW]KVC[d2Nal]-NH2; disulfide 2-7; N-terminus assumed) | 9 | 10 ± 3 | 67 ± 13 | 2 ± 1 | 14 ± 1 | – | 6
C[C@@H](O)[C@H](NC(=O)[C@@H]1CSSC[C@H](NC(=O)[C@H](N)Cc2ccc3ccccc3c2)C(=O)N[C@@H](Cc2ccccc2)C(=O)N[C@H](Cc2c[nH]c3ccccc23)C(=O)N[C@@H](CCCCN)C(=O)N[C@@H]([C@@H](C)O)C(=O)N1)C(N)=O [Analog #18, [Phe^3, Thr^6,8]-cycle SS-octa] (H-[d2Nal]CF[dW]KTCT-NH2; disulfide 2-7) | – | 11 ± 1 | 143 ± 11 | – | – | had no effect | –
